Literature values as cited in patent US20260206768A1, “COMBINATION OF VARIOUS NITROGEN FIXING BACTERIA WITH VARIOUS BIOLOGICAL PRODUCTS TO ACHIEVE SYNERGISTIC EFFECTS” (Pivot Bio, Inc., priority 2022, published 2026).
Peptide text beside a SMILES is read from it.

Details: for Useful pH range: buffering range

| Compound | pKa at 25° C. | Useful pH range |
| --- | --- | --- |
| NC(=O)CNCCS(=O)(=O)O [ACES] | 6.78 | 6.1-7.5 |
| NC(=O)CN(CC(=O)O)CC(=O)O [ADA] | 6.59 | 6.0-7.2 |
| CC(N)(CO)CO [AMPD] | 8.8 | 7.8-9.7 |
| CC(C)(CO)NCC(O)CS(=O)(=O)O (centres unmarked) [AMPSO] | 9 | 8.3-9.7 |
| CC(C)(N)CO [AMP] | 9.7 | 9.0-10.5 |
| CC(=O)O [Acetic acid, Ethanoic acid] | – | 3.8-5.8 |
| O=S(=O)(O)CCN(CCO)CCO [BES] | 7.09 | 6.4-7.8 |
| OCC(CO)(CO)NCCCNC(CO)(CO)CO [Bis-Tris Propane] | – | 6.3-9.5 |
| OB(O)O [Boric acid] | – | 8.25-10.25 |
| O=S(=O)(O)CCCCNC1CCCCC1 [CABS] | 10.7 | 10.0-11.4 |
| O=S(=O)(O)CC(O)CNC1CCCCC1 (centres unmarked) [CAPSO] | – | 8.9-10.3 |
| O=S(=O)(O)CCCNC1CCCCC1 [CAPS] | 10.4 | 9.7-11.1 |
| O=S(=O)(O)CCNC1CCCCC1 [CHES, N-Cyclohexyl-2-aminoethanesulfonic acid] | – | 8.3-10.3 |
| O=C(O)CC(O)(CC(=O)O)C(=O)O [Citric acid, 2-Hydroxypropane-1,2,3-tricarboxylic acid] | – | 2.1-7.4 |
| O=S(=O)(O)CC(O)CN(CCO)CCO (centres unmarked) [DIPSO] | 7.6 | 7.0-8.2 |
| O=S(=O)(O)CCCN1CCN(CCO)CC1 [EPPS] | 8 | 7.3-8.7 |
| NCC(=O)NCC(=O)O [Gly-Gly] (H-Gly-Gly-OH) | – | 7.5-8.9 |
| O=S(=O)(O)CCCCN1CCN(CCO)CC1 [HEPBS] | 8.3 | 7.6-9.0 |
| O=P([O-])([O-])O.[K+].[K+] [K2HPO4, dipotassium phosphate] | – | 8.7-9.4 |
| O=P([O-])([O-])[O-].[K+].[K+].[K+] [K3PO4] | – | 11.5-12.3 |
| O=S(=O)(O)CCCCN1CCOCC1 [MOBS] | 7.6 | 6.9-8.3 |
| O=S(=O)(O)CCN1CCN(CCS(=O)(=O)O)CC1 [PIPES, piperazine-N,N′-bis(2-ethanesulfonic acid)] | 6.76 | 6.1-7.5 |
| O=S(=O)(O)CC(O)CN1CCN(CC(O)CS(=O)(=O)O)CC1 (centres unmarked) [POPSO] | 7.8 | 7.2-8.5 |
| O=S(=O)(O)CCCCNC(CO)(CO)CO [TABS] | 8.9 | 8.2-9.6 |
| O=S(=O)(O)CCCNC(CO)(CO)CO [TAPS, [tris(hydroxymethyl)methylamino]propanesulfonic acid] | – | 7.7-9.1 |
| O=S(=O)(O)CC(O)CNC(CO)(CO)CO (centres unmarked) [TAPSO, 3-[N-tris(hydroxymethyl)methylamino]-2-hydroxypropanesulfonic acid] | – | 7.0-8.2 |
| OCCN(CCO)CCO [TEA] | – | 7.3-8.3 |
| O=S(=O)(O)CCNC(CO)(CO)CO [TES, 2-[[1,3-dihydroxy-2-(hydroxymethyl)propan-2-yl]amino]ethanesulfonic acid] | – | 6.8-8.2 |
| O=C(O)CNC(CO)(CO)CO [Tricine, N-[tris(hydroxymethyl)methyl]glycine] | – | 7.4-8.8 |
